Results as given in PMC6522941, “Design, synthesis, and anticancer evaluation of novel quinoline derivatives of ursolic acid with hydrazide, oxadiazole, and thiadiazole moieties as potent MEK inhibitors” (Journal of Enzyme Inhibition and Medicinal Chemistry, 2019).

System: HeLa cells
Experiment: JC-1 mitochondrial membrane potential assay
Type: cell-based, human
Settings: 24 h, control 7.59
Protocol: The JC-1 mitochondrial membrane potential assay kit (Keygene Biotech., Nanjing, China) was employed to measure mitochondrial depolarisation in HeLa cells. Briefly, cells cultured in six-well plates after indicated treatments by compound 4d were incubated with an equal volume of JC-1 staining solution (5 μg/mL) at 37 °C for 20 min and rinsed twice with PBS. Mitochondrial membrane potentials were monitored by determining the relative amounts of dual emissions from mitochondrial JC-1 monomers or aggregates using flow cytometry (Becton-Dickinson FACSCalibur, New York, NY, USA). Mitochondrial membrane depolarisation is indicated by an increase in the percentage of cells with low ΔΨm (green fluorescence and lower right quadrant) compared with cells with high ΔΨm (red fluorescence and upper right quadrant).
As a kind of important organelle, Mitochondria play indispensable roles not only on supplying metabolic energy in the form of ATP, but also on regulating the signal transmission during the apoptosis of cancer cells. In addition, the mitochondrial dysfunction can be aroused under high ROS exposure, leading to the collapse of mitochondrial membrane potential (ΔΨm), which is a characteristic phenomenon of early apoptosis. Loss of ΔΨm can be detected using the fluorescent cationic dye JC-1, which spontaneously forms red fluorescent dimers (J aggregates) under high ΔΨm, whereas its monomeric form showing green fluorescence is prevalent in cells with low ΔΨm. Green and red fluorescence can be observed at 527 and 590 nm, respectively. Thus, changes in the green/red fluorescence ratio reflect the variation in ΔΨm, which can be quantitatively analysed by flow cytometry.

## CC(=O)NNC(=O)C12CCC(C)C(C)C1C1=CCC3C4(C)Cc5cc6cc(Cl)ccc6nc5C(C)(C)C4CCC3(C)C1(C)CC2 (stereo not drawn) [Compound 4d, N-[5′-chloro-ursa-12-en-(2,3)-quinoline-28-oyl]-acetohydrazide]
0.05 μM
  Cells with low ΔΨm (green fluorescence, lower right quadrant): 36.33%
0.1 μM
  Cells with low ΔΨm (green fluorescence, lower right quadrant): 54.08%
0.2 μM
  Cells with low ΔΨm (green fluorescence, lower right quadrant): 70.83%
